Experimental data reported in patent US20210222225A1, “Medium for Disk Diffusion Method to Evaluate Antibiotic Sensitivity” (priority 2018, published 2021).

Tests used:
[1] = test system: colistin-susceptible (S) Acinetobacter calcoaceticus-baumannii complex (ACB) strain; experiment: Colistin disk diffusion on modified Mueller-Hinton agar, ACB-S; assay type: cell-based
Protocol: (§1) To each MHA thus modified was added protamine (Sigma-Aldrich, St Louis, Mo., USA) at a concentration of 100 μg/ml, and solidification was performed. Then, on a surface of the medium was evenly inoculated each of colistin-susceptible (S) or -resistant (R) Acinetobacter calcoaceticus-baumannii complex (ACB) strain, Pseudomonas aeruginosa ATCC27853 strain, Escherichia coli ATCC25922 strain, and mcr-1-harboring Enterobacter aerogenes strain, and a colistin disk was placed thereon. Subsequently, a diameter of a growth inhibition zone (colistin inhibition zone), which had been formed clear by diffusion of colistin to the agar around the colistin disk, was measured.
As in Example 1, a concentration of agar particles (BD Diagnostic, Sparks, Md., USA) in Mueller-Hinton broth medium (BD Diagnostic) was adjusted to 17 g/L or 5.1 g/L that is 30% of 17 g/L. To select a concentration of protamine, which can enhance diffusion of colistin from a disk without interfering with bacterial growth, while using the protamine at various concentrations, protamine (Sigma-Aldrich, St Louis, Mo., USA) was added to the medium at concentrations of 1 mg/ml, 700 μg/ml, 400 μg/ml, 300 μg/ml, 200 μg/ml, 150 μg/ml, 100 μg/ml, and 50 μg/ml. Each medium thus modified was solidified. Then, on a surface of each medium was evenly inoculated each of colistin-susceptible (S) or -resistant (R) Acinetobacter calcoaceticus-baumannii complex (ACB) strain, Pseudomonas aeruginosa ATCC27853 strain, and mcr-1-harboring Enterobacter aerogenes strain, and a colistin disk was placed thereon. Then, it was determined whether each strain was grown, and a diameter of a growth inhibition zone, which had been formed around the disk, was measured.

[2] = test system: colistin-susceptible strains; experiment: Colistin disk diffusion, colistin-susceptible strains as a group (average, differences); assay type: cell-based; conditions: for Average, diameter (mm) of colistin inhibition zone, colistin-susceptible strains / Difference (S vs ACB-R), diameter (mm) of colistin inhibition zone / Difference (S vs mcr-1), diameter (mm) of colistin inhibition zone: protamine 100 μg/ml
Protocol: as §1
As in Example 1, a concentration of agar particles (BD Diagnostic, Sparks, Md., USA) in Mueller-Hinton broth medium (BD Diagnostic) was adjusted to 5.1 g/L, which is 30% of 17 g/L, and protamine (Sigma-Aldrich, St Louis, Mo., USA) was added thereto at a concentration of 150 μg/ml or 100 μg/ml. Then, solidification was performed. To compare effects depending on concentrations of agar and protamine, Muller-Hinton agar medium (BD Diagnostic) containing agar at a concentration of 17 g/L and medium obtained by adding, to the Muller-Hinton agar medium, protamine at a concentration of 100 μg/ml were prepared as controls. On a surface of each medium thus prepared was evenly inoculated each of colistin-susceptible (S) or -resistant (R) Acinetobacter calcoaceticus-baumannii complex (ACB) strain, Pseudomonas aeruginosa ATCC27853 strain, and mcr-1-harboring Enterobacter aerogenes strain, and a colistin disk was placed thereon. Then, it was determined whether each strain was grown, and a diameter of a growth inhibition zone, which had been formed clear around the disk, was measured. The results are illustrated in FIG. 1.
The following four bacterial strains were used to determine conditions for agar: colistin-susceptible (S) or -resistant (R) Acinetobacter calcoaceticus-baumannii complex (ACB) strain (N=2), Pseudomonas aeruginosa ATCC27853 strain, and mcr-1-harboring Enterobacter aerogenes strain. A concentration of agar particles (BD Diagnostic, Sparks, Md., USA) in Mueller-Hinton broth medium (BD Diagnostic) was adjusted to 17 g/L or 5.1 g/L that is 30% of 17 g/L. To each modified MHA was added protamine (Sigma-Aldrich, St Louis, Mo., USA) at a concentration of 100 μg/ml.
On a surface of each medium thus prepared was evenly inoculated each of colistin-susceptible (S) or -resistant (R) Acinetobacter calcoaceticus-baumannii complex (ACB) strain, Pseudomonas aeruginosa ATCC27853 strain, and mcr-1-harboring Enterobacter aerogenes strain, and a colistin disk was placed thereon. Then, it was determined whether each strain was grown, and a diameter of a colistin inhibition zone, which had been formed clear around the disk, was measured. The results are illustrated in FIGS. 2A and 2B. Pictures of an inhibition zone around the disk were taken for each strain, and the results are illustrated in FIGS. 3A, 3B, 4A, 4B, 5A, 5B, 6A and 6B.

ABA A532_R = experiment: Colistin disk diffusion, guanidine hydrochloride medium, A532_R; assay type: cell-based, Acinetobacter baumannii; conditions: 30% agar
Protocol: A concentration of agar particles (BD Diagnostic, Sparks, Md., USA) in Mueller-Hinton broth medium (BD Diagnostic) was adjusted to 5.1 g/L, which is 30% of 17 g/L, and guanidine hydrochloride was added to a concentration of 500 μg/ml, 50 μg/ml, or 5 μg/ml. Then, solidification was performed. On a surface of each medium thus prepared was evenly inoculated each of colistin-susceptible (S) or -resistant (R) Acinetobacter baumannii (ABA) strain, colistin-susceptible (S) or -resistant (R) Klebsiella pnemoniae (KPN) strain, and colistin-susceptible (S) or -resistant (R) Pseudomonas aeruginosa (PAE) strain, and a colistin disk was placed thereon. Then, pictures of a growth inhibition zone, which had been formed clear, around the disk were taken for each strain, and the results are illustrated in FIGS. 8 to 10.

colistin
Disk diffusion (mm) ([1]; 30% agar, protamine 50 μg/ml): 14 mm
Diameter (mm) of colistin inhibition zone ([1]; 30% agar, protamine 100 μg/ml): 16 mm
Disk diffusion (mm) ([1]; 30% agar, protamine 100 μg/ml): 15 mm
Disk diffusion (mm) ([1]; 30% agar, protamine 150 μg/ml): 15 mm
Disk diffusion (mm) ([1]; 30% agar, protamine 200 μg/ml): 14 mm
Disk diffusion (mm) ([1]; 30% agar, protamine 300 μg/ml): 6 mm
Disk diffusion (mm) ([1]; 30% agar, protamine 400 μg/ml): 6 mm
Disk diffusion (mm) ([1]; 30% agar, protamine 700 μg/ml): 6 mm
Disk diffusion (mm) ([1]; 30% agar, protamine 1,000 μg/ml): 6 mm
Diameter (mm) of colistin inhibition zone ([1]; 40% agar, protamine 100 μg/ml): 15 mm
Diameter (mm) of colistin inhibition zone ([1]; 50% agar, protamine 100 μg/ml): 13 mm
Diameter (mm) of colistin inhibition zone ([1]; 60% agar, protamine 100 μg/ml): 13 mm
Diameter (mm) of colistin inhibition zone ([1]; 70% agar, protamine 100 μg/ml): 13 mm
Diameter (mm) of colistin inhibition zone ([1]; 80% agar, protamine 100 μg/ml): 12 mm
Diameter (mm) of colistin inhibition zone ([1]; 90% agar, protamine 100 μg/ml): 12 mm
Disk diffusion (mm) ([1]; 100% agar, protamine 50 μg/ml): 13 mm
Diameter (mm) of colistin inhibition zone ([1]; 100% agar, protamine 100 μg/ml): 12 mm
Disk diffusion (mm) ([1]; 100% agar, protamine 100 μg/ml): 12 mm
Disk diffusion (mm) ([1]; 100% agar, protamine 150 μg/ml): 13 mm
Disk diffusion (mm) ([1]; 100% agar, protamine 200 μg/ml): 12 mm
Disk diffusion (mm) ([1]; 100% agar, protamine 300 μg/ml): 13 mm
Disk diffusion (mm) ([1]; 100% agar, protamine 400 μg/ml): 14 mm
Disk diffusion (mm) ([1]; 100% agar, protamine 700 μg/ml): 10 mm
Disk diffusion (mm) ([1]; 100% agar, protamine 1,000 μg/ml): 6 mm
Average, diameter (mm) of colistin inhibition zone, colistin-susceptible strains ([2]; 30% agar): 16 mm
Difference (S vs ACB-R), diameter (mm) of colistin inhibition zone ([2]; 30% agar): 5 mm
Difference (S vs mcr-1), diameter (mm) of colistin inhibition zone ([2]; 30% agar): 5 mm
Average, diameter (mm) of colistin inhibition zone, colistin-susceptible strains ([2]; 40% agar): 15 mm
Difference (S vs ACB-R), diameter (mm) of colistin inhibition zone ([2]; 40% agar): 4 mm
Difference (S vs mcr-1), diameter (mm) of colistin inhibition zone ([2]; 40% agar): 5 mm
Average, diameter (mm) of colistin inhibition zone, colistin-susceptible strains ([2]; 50% agar): 14 mm
Difference (S vs ACB-R), diameter (mm) of colistin inhibition zone ([2]; 50% agar): 4 mm
Difference (S vs mcr-1), diameter (mm) of colistin inhibition zone ([2]; 50% agar): 3 mm
Average, diameter (mm) of colistin inhibition zone, colistin-susceptible strains ([2]; 60% agar): 14 mm
Difference (S vs ACB-R), diameter (mm) of colistin inhibition zone ([2]; 60% agar): 1 mm
Difference (S vs mcr-1), diameter (mm) of colistin inhibition zone ([2]; 60% agar): 4 mm
Average, diameter (mm) of colistin inhibition zone, colistin-susceptible strains ([2]; 70% agar): 14 mm
Difference (S vs ACB-R), diameter (mm) of colistin inhibition zone ([2]; 70% agar): 3 mm
Difference (S vs mcr-1), diameter (mm) of colistin inhibition zone ([2]; 70% agar): 4 mm
Average, diameter (mm) of colistin inhibition zone, colistin-susceptible strains ([2]; 80% agar): 13 mm
Difference (S vs ACB-R), diameter (mm) of colistin inhibition zone ([2]; 80% agar): 1 mm
Difference (S vs mcr-1), diameter (mm) of colistin inhibition zone ([2]; 80% agar): 4 mm
Average, diameter (mm) of colistin inhibition zone, colistin-susceptible strains ([2]; 90% agar): 13 mm
Difference (S vs ACB-R), diameter (mm) of colistin inhibition zone ([2]; 90% agar): 1 mm
Difference (S vs mcr-1), diameter (mm) of colistin inhibition zone ([2]; 90% agar): 3 mm
Average, diameter (mm) of colistin inhibition zone, colistin-susceptible strains ([2]; 100% agar): 13 mm
Difference (S vs ACB-R), diameter (mm) of colistin inhibition zone ([2]; 100% agar): 2 mm
Difference (S vs mcr-1), diameter (mm) of colistin inhibition zone ([2]; 100% agar): 3 mm
size of a growth inhibition zone in the colistin-susceptible strains ([2]; agar 5.1 g/L (30%) compared with 17 g/L, FIG. 1): increased
diameter of the growth inhibition zone in the colistin-susceptible strains ([2]; agar 5.1 g/L and protamine 100 μg/ml compared with agar 17 g/L, FIGS. 2A to 6B): remarkably increased
Disk diffusion (mm) (ABA A532_R; guanidine hydrochloride 5 μg/ml): 9 mm
Disk diffusion (mm) (ABA A532_R; guanidine hydrochloride 50 μg/ml): 9 mm
Disk diffusion (mm) (ABA A532_R; guanidine hydrochloride 500 μg/ml): 9 mm
